Test results taken from patent US20120076899A1, “SHELF STABLE MONATIN SWEETENED BEVERAGE” (Cargill, Incorporated, priority 2009, published 2012).

How the values were obtained:
[1] = Total indole concentrations over range of dissolved oxygen concentrations (light box storage); assay type: physicochemical; details: continuous light ~2200 lux, 28° C., pH 2.8-3.0
Experimental: (§1) Synthetic R,R-monatin containing approximately 95.4% R,R-monatin monopotassium salt (dry basis) was obtained from CSIR (Modderfontein, South Africa). About 100 mg/L of this monatin was placed in a buffered solution at a pH of about 2.8-3.0 comprising 9 mM citric acid-trisodium citrate in high purity water and preserved with about 150 mg/L sodium benzoate. Dissolved O2 levels were either increased by bubbling compressed air or reduced by bubbling N2 (99.9% purity) through these samples until the target O2 concentrations were achieved. Dissolved O2 levels were determined at 20° C. using a FOXY fluorescence quenching O2 analyzer from Ocean Optics (Dunedin, Fla.). Samples were stored in clear, glass ampules (˜10 mL) after O2 adjustment and heat-sealed to create an air-tight enclosure. The samples were then exposed to light continuously (24 hours per day) in a light box (˜2200 lux light intensity) configured with a rotating carousel to provide even illumination. The source of light was provided by ultra-violet (UV) light wavelength transmitting bulbs and standard fluorescent bulbs. The heat produced by the lights warmed the samples to a temperature of about 28° C. Duplicate samples of each treatment were analyzed weekly for total indole concentrations via the following method.
(§2) Total indole (monatin and its intramolecular rearrangement products, monatin lactone and monatin lactam) concentrations were quantified by reversed phase HPLC at 40° C. using an Agilent Zorbax Eclipse C18 column with UV detection at 280 nm by PDA. The compounds were eluted by a gradient mobile phase consisting of (A) 1:1 methanol and acetonitrile (v:v) with 0.3% formic acid and 10 mM ammonium formate and (B) 0.3% formic acid in water with 10 mM ammonium formate. The integrated peak areas for the three (3) compounds were expressed in terms of monatin concentration (mg/L) based on a standard curve prepared for monatin. Thus, the extinction coefficient for monatin was applied to estimate concentrations of monatin lactone and monatin lactam since standards for these compounds were unavailable.

[2] = Total indole concentrations under various light, O2 and EMIQ conditions; assay type: physicochemical
Experimental: as §1, with “35” for “100”, “benzoate. To some samples 200 ppm SANMELIN™ AO-3000 enzymatically modified isoquercitrin (EMIQ) (San-Ei Gen F.F.I.—Osaka, Japan) was added.” for “benzoate.”, “then either stored in the dark, or” for “then”
as §2

- Total Indole Concentration ([1]; 0.4 mg/L O2, 0 Days): 104.0 mg/L
- Total Indole Concentration ([1]; 0.4 mg/L O2, 7 Days): 98.7 mg/L
- Total Indole Concentration ([1]; 0.4 mg/L O2, 14 Days): 102.9 mg/L
- Total Indole Concentration ([1]; 0.4 mg/L O2, 21 Days): 97.5 mg/L
- Total Indole Concentration ([1]; 0.4 mg/L O2, 28 Days): 96.2 mg/L
- Total Indole Concentration ([1]; 1.5 mg/L O2, 0 Days): 104.0 mg/L
- Total Indole Concentration ([1]; 1.5 mg/L O2, 7 Days): 97.1 mg/L
- Total Indole Concentration ([1]; 1.5 mg/L O2, 14 Days): 90.6 mg/L
- Total Indole Concentration ([1]; 1.5 mg/L O2, 21 Days): 93.3 mg/L
- Total Indole Concentration ([1]; 1.5 mg/L O2, 28 Days): 76.0 mg/L
- Total Indole Concentration ([1]; 4.0 mg/L O2, 0 Days): 104.0 mg/L
- Total Indole Concentration ([1]; 4.0 mg/L O2, 7 Days): 94.6 mg/L
- Total Indole Concentration ([1]; 4.0 mg/L O2, 14 Days): 71.3 mg/L
- Total Indole Concentration ([1]; 4.0 mg/L O2, 21 Days): 58.0 mg/L
- Total Indole Concentration ([1]; 4.0 mg/L O2, 28 Days): 14.6 mg/L
- Total Indole Concentration ([1]; 6.5 mg/L O2, 0 Days): 104.0 mg/L
- Total Indole Concentration ([1]; 6.5 mg/L O2, 7 Days): 97.0 mg/L
- Total Indole Concentration ([1]; 6.5 mg/L O2, 14 Days): 75.7 mg/L
- Total Indole Concentration ([1]; 6.5 mg/L O2, 21 Days): 54.7 mg/L
- Total Indole Concentration ([1]; 6.5 mg/L O2, 28 Days): 0.0 mg/L
- Total Indole Concentration ([1]; 8.3 mg/L O2, 0 Days): 104.0 mg/L
- Total Indole Concentration ([1]; 8.3 mg/L O2, 7 Days): 89.6 mg/L
- Total Indole Concentration ([1]; 8.3 mg/L O2, 14 Days): 49.9 mg/L
- Total Indole Concentration ([1]; 8.3 mg/L O2, 21 Days): 21.3 mg/L
- Total Indole Concentration ([1]; 8.3 mg/L O2, 28 Days): 0.0 mg/L
- Total Indole Concentration ([2]; Light Exposure NO, O2 8.3 mg/L, EMIQ 0 ppm, 0 Days): 36.3 mg/L
- Total Indole Concentration ([2]; Light Exposure NO, O2 8.3 mg/L, EMIQ 0 ppm, 7 Days): 36.5 mg/L
- Total Indole Concentration ([2]; Light Exposure NO, O2 8.3 mg/L, EMIQ 0 ppm, 14 Days): 37.0 mg/L
- Total Indole Concentration ([2]; Light Exposure NO, O2 8.3 mg/L, EMIQ 0 ppm, 21 Days): 41.0 mg/L
- Total Indole Concentration ([2]; Light Exposure NO, O2 8.3 mg/L, EMIQ 0 ppm, 28 Days): 37.5 mg/L
- Total Indole Concentration ([2]; Light Exposure NO, O2 8.3 mg/L, EMIQ 200 ppm, 0 Days): 35.5 mg/L
- Total Indole Concentration ([2]; Light Exposure NO, O2 8.3 mg/L, EMIQ 200 ppm, 7 Days): 35.3 mg/L
- Total Indole Concentration ([2]; Light Exposure NO, O2 8.3 mg/L, EMIQ 200 ppm, 14 Days): 43.3 mg/L
- Total Indole Concentration ([2]; Light Exposure NO, O2 8.3 mg/L, EMIQ 200 ppm, 21 Days): 36.2 mg/L
- Total Indole Concentration ([2]; Light Exposure NO, O2 8.3 mg/L, EMIQ 200 ppm, 28 Days): 33.5 mg/L
- Total Indole Concentration ([2]; Light Exposure NO, O2 <0.5 mg/L, EMIQ 0 ppm, 0 Days): 34.7 mg/L
- Total Indole Concentration ([2]; Light Exposure NO, O2 <0.5 mg/L, EMIQ 0 ppm, 7 Days): 32.8 mg/L
- Total Indole Concentration ([2]; Light Exposure NO, O2 <0.5 mg/L, EMIQ 0 ppm, 14 Days): 34.4 mg/L
- Total Indole Concentration ([2]; Light Exposure NO, O2 <0.5 mg/L, EMIQ 0 ppm, 21 Days): 32.8 mg/L
- Total Indole Concentration ([2]; Light Exposure NO, O2 <0.5 mg/L, EMIQ 0 ppm, 28 Days): 35.2 mg/L
- Total Indole Concentration ([2]; Light Exposure NO, O2 <0.5 mg/L, EMIQ 200 ppm, 0 Days): 34.7 mg/L
- Total Indole Concentration ([2]; Light Exposure NO, O2 <0.5 mg/L, EMIQ 200 ppm, 7 Days): 32.8 mg/L
- Total Indole Concentration ([2]; Light Exposure NO, O2 <0.5 mg/L, EMIQ 200 ppm, 14 Days): 34.4 mg/L
- Total Indole Concentration ([2]; Light Exposure NO, O2 <0.5 mg/L, EMIQ 200 ppm, 21 Days): 32.8 mg/L
- Total Indole Concentration ([2]; Light Exposure NO, O2 <0.5 mg/L, EMIQ 200 ppm, 28 Days): 35.2 mg/L
- Total Indole Concentration ([2]; Light Exposure YES, O2 8.3 mg/L, EMIQ 0 ppm, 0 Days): 36.3 mg/L
- Total Indole Concentration ([2]; Light Exposure YES, O2 8.3 mg/L, EMIQ 0 ppm, 7 Days): 15.3 mg/L
- Total Indole Concentration ([2]; Light Exposure YES, O2 8.3 mg/L, EMIQ 0 ppm, 14 Days): 4.5 mg/L
- Total Indole Concentration ([2]; Light Exposure YES, O2 8.3 mg/L, EMIQ 0 ppm, 21 Days): 0.0 mg/L
- Total Indole Concentration ([2]; Light Exposure YES, O2 8.3 mg/L, EMIQ 0 ppm, 28 Days): 0.0 mg/L
- Total Indole Concentration ([2]; Light Exposure YES, O2 8.3 mg/L, EMIQ 200 ppm, 0 Days): 34.7 mg/L
- Total Indole Concentration ([2]; Light Exposure YES, O2 8.3 mg/L, EMIQ 200 ppm, 7 Days): 32.7 mg/L
- Total Indole Concentration ([2]; Light Exposure YES, O2 8.3 mg/L, EMIQ 200 ppm, 14 Days): 28.4 mg/L
- Total Indole Concentration ([2]; Light Exposure YES, O2 8.3 mg/L, EMIQ 200 ppm, 21 Days): 26.0 mg/L
- Total Indole Concentration ([2]; Light Exposure YES, O2 8.3 mg/L, EMIQ 200 ppm, 28 Days): 22.5 mg/L
- Total Indole Concentration ([2]; Light Exposure YES, O2 <0.5 mg/L, EMIQ 0 ppm, 0 Days): 36.3 mg/L
- Total Indole Concentration ([2]; Light Exposure YES, O2 <0.5 mg/L, EMIQ 0 ppm, 7 Days): 35.9 mg/L
- Total Indole Concentration ([2]; Light Exposure YES, O2 <0.5 mg/L, EMIQ 0 ppm, 14 Days): 36.0 mg/L
- Total Indole Concentration ([2]; Light Exposure YES, O2 <0.5 mg/L, EMIQ 0 ppm, 21 Days): 38.8 mg/L
- Total Indole Concentration ([2]; Light Exposure YES, O2 <0.5 mg/L, EMIQ 0 ppm, 28 Days): 34.6 mg/L
- Total Indole Concentration ([2]; Light Exposure YES, O2 <0.5 mg/L, EMIQ 200 ppm, 0 Days): 34.7 mg/L
- Total Indole Concentration ([2]; Light Exposure YES, O2 <0.5 mg/L, EMIQ 200 ppm, 7 Days): 35.8 mg/L
- Total Indole Concentration ([2]; Light Exposure YES, O2 <0.5 mg/L, EMIQ 200 ppm, 14 Days): 33.9 mg/L
- Total Indole Concentration ([2]; Light Exposure YES, O2 <0.5 mg/L, EMIQ 200 ppm, 21 Days): 35.1 mg/L
- Total Indole Concentration ([2]; Light Exposure YES, O2 <0.5 mg/L, EMIQ 200 ppm, 28 Days): 29.3 mg/L
Structure (SMILES): NC(CC(O)(Cc1c[nH]c2ccccc12)C(=O)O)C(=O)O (centres unmarked) [R,R-monatin, 2-hydroxy-2-(indol-3-ylmethyl)-4-aminoglutaric acid]
